Assay results reported in the supplement of paper PMC10307832.

Tests used:
Test in all cases: relative viability (nuclei count vs DMSO), 5 days (fraction); higher = more cells survive
[1] = compound: COCC[n+]1c2c(n(Cc3cnccn3)c1C)C(=O)c1ccccc1C2=O [YM155] + Nc1nc2[nH]cc(CCc3ccc(C(=O)N[C@@H](CCC(=O)O)C(=O)O)cc3)c2c(=O)[nH]1 [Pemetrexed] (partner 0.2 µM)
Outline: (§1)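 After 5 days of treatment, lung cancer cells in 1536-well plates were fixed and stained in a single step (final 0.05% Triton X-100, 1% formaldehyde, 1 ug/ml Hoechst) and their nuclei counted on 4× images. Treatment had been applied by pin tool the day after seeding as one drug alone or as a fixed anchor-drug dose with five library-drug doses (not always all listed) in √10 steps. Relative viability is the nuclei count of treated wells divided by that of vehicle wells, and values are medians of duplicate plates.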

[2] = compound: COCC[n+]1c2c(n(Cc3cnccn3)c1C)C(=O)c1ccccc1C2=O [YM155] + C[C@@H](Oc1cc(-c2cnn(C3CCNCC3)c2)cnc1N)c1c(Cl)ccc(F)c1Cl [Crizotinib] (partner 1 µM)
Outline: as §1

[3] = compound: COCC[n+]1c2c(n(Cc3cnccn3)c1C)C(=O)c1ccccc1C2=O [YM155] + O=C(c1cc(Cc2n[nH]c(=O)c3ccccc23)ccc1F)N1CCN(C(=O)C2CC2)CC1 [Olaparib] (partner 8 µM)
Outline: as §1

[4] = compound: CC(C)(C)c1cc(NC(=O)Nc2ccc(-c3cn4c(n3)sc3cc(OCCN5CCOCC5)ccc34)cc2)no1 [Quizartinib] + C[C@]1(O)C[C@@H](c2nc(-c3ccc4ccc(-c5ccccc5)nc4c3)c3c(N)nccn32)C1 [Linsitinib] (partner 1 µM)
Outline: as §1

| Cell Line | relative viability ([1]; first compound 0.002 µM) | relative viability ([1]; first compound 0.006325 µM) | relative viability ([1]; first compound 0.02 µM) | relative viability ([1]; first compound 0.06325 µM) | relative viability ([2]; first compound 0.002 µM) | relative viability ([2]; first compound 0.006325 µM) | relative viability ([2]; first compound 0.02 µM) | relative viability ([2]; first compound 0.06325 µM) | relative viability ([3]; first compound 0.002 µM) | relative viability ([3]; first compound 0.006325 µM) | relative viability ([3]; first compound 0.02 µM) | relative viability ([3]; first compound 0.06325 µM) | relative viability ([4]; first compound 0.001 µM) | relative viability ([4]; first compound 0.003162 µM) | relative viability ([4]; first compound 0.01 µM) | relative viability ([4]; first compound 0.03162 µM) | relative viability ([4]; first compound 0.1 µM) |
| --- | --- | --- | --- | --- | --- | --- | --- | --- | --- | --- | --- | --- | --- | --- | --- | --- | --- |
| 201T | 0.31 | 0.406 | 0.298 | 0.28 | 0.98 | 1 | 1.01 | 1.03 | 0.813 | 0.845 | 0.826 | 0.874 | 1.06 | 1.04 | 0.969 | 1.06 | 1.11 |
| A549 | – | – | – | – | 0.717 | 0.592 | 0.654 | 0.142 | 0.232 | 0.313 | 0.376 | 0.324 | – | 0.49 | 0.61 | 0.611 | 0.787 |
| A-427 | 0.941 | 1.02 | 1 | 0.762 | 0.959 | 0.839 | 0.89 | 0.865 | 0.735 | 0.556 | 0.714 | 0.294 | 1.04 | 1.08 | 1.14 | 1.04 | 1.12 |
| ABC-1 | – | – | – | – | 0.844 | 0.341 | 0.166 | 0.15 | – | 0.51 | 0.28 | 0.261 | 0.662 | 0.732 | 0.702 | 0.675 | 0.722 |
| BEN | 0.63 | 0.839 | 0.934 | 0.908 | 0.873 | 0.987 | 0.863 | 1.05 | 0.994 | 1.06 | 1.11 | 1.08 | 0.739 | 0.779 | 0.903 | 0.815 | 0.712 |
| CAL-12T | 1.23 | 1.22 | 1.11 | 0.569 | 0.608 | 0.696 | 0.551 | 0.409 | 0.782 | 0.735 | 0.625 | 0.331 | 0.744 | 0.771 | 0.976 | 0.882 | 0.986 |
| COR-L23 | 0.194 | 0.198 | 0.18 | 0.136 | 0.649 | 0.569 | 0.403 | 0.105 | 0.322 | 0.298 | 0.187 | 0.147 | 0.829 | 0.9 | 1.05 | 0.748 | 0.92 |
| COR-L 105 | 1.01 | 1.04 | 1 | 0.602 | 0.907 | 0.807 | 0.591 | 0.385 | 0.584 | 0.715 | 0.72 | 0.538 | 0.704 | 0.846 | 1.23 | 0.733 | 0.95 |
| Calu-6 | – | – | – | – | 0.728 | 0.776 | 0.349 | 0.135 | 0.544 | 0.586 | 0.294 | 0.129 | 0.975 | 0.884 | 0.944 | 0.959 | 0.883 |
| ChaGo-K-1 | 0.261 | 0.243 | 0.26 | 0.254 | 1.1 | 1.06 | 1.17 | 0.784 | 0.364 | 0.38 | 0.43 | 0.385 | – | – | – | – | – |
